What is called Ki is a dissociation constant, usually derived from enzyme kinetics or from competition with a known ligand.

Our source for the Ki values is patent US5654310A, “Triazolopyrimidones their preparation and use” (BASF Aktiengesellschaft, priority 1992, dated 1997).

In assay [1] the target is T1, NMDA (N-methyl-D-aspartate) receptor (Rattus norvegicus, UniProt P35439).
T1 construct: freshly removed rat cerebra were homogenized; from tissue; host or cells: rat cerebrum, washed membranes
Briefly: Binding of ^3 H-5,7-dichlorokynurenic acid (displacement on rat cerebral membranes). The note with it: rat cerebra membranes, pH 7.4, 30 minutes on ice.

The target of another assay is AMPA receptor. Briefly: Binding of ^3 H-AMPA (displacement on rat cerebral membranes). The note with it: rat cerebra membranes, pH 7.1, 60 minutes on ice. As for the experimental part: For this, the membrane material was treated in the presence of the compounds according to the invention with the radio-labeled substances ^3 H-2-amino-3-hydroxy-5-methyl-4-isoxazolepropionic acid (^3 H-AMPA) and ^3 H-5,7-dichlorocyanuric [sic] acid, which bind to specific receptors (AMPA and NMDA (N-methyl-D-aspartate) receptors respectively). Subsequently the radioactivity in the treated membranes was measured by scintillation counting. It was possible from the bound radioactivity to determine the amounts of bound 3H AMPa and ^3 H-5,7-dichlorokyanurenicacid, or the amounts of each of these radiolabeled substances displaced.
1. Binding of ^3 H-2-amino-3-hydroxy-5-methyl-4-isoxazolepropionic acid (^3 H-AMPA).
To prepare the membrane material, freshly removed rat cerebra were homogenized together with about 15 times the volume of a buffer solution A composed of 30 mM α,α,α-tris(hydroxymethyl)methylamine hydrochloride (TRIS-HCl) and 0.5 mM ethylenediaminetetraacetic acid (EDTA), pH 7.4, using an Ultra-TURRAX. The suspension was centrifuged at 48,000 g for 20 min. After removal of the supernatant liquid, the protein-containing membrane material present in the pellet was washed three times by suspension in buffer solution A and subsequent centrifugation at 48,000 g for 20 minutes each time. The membrane material was then suspended in 15 times the volume of buffer solution A and incubated at 37° C. for 30 minutes. Subsequently the protein material was washed twice by centrifugation and suspension and was stored at -70° C. until used.
For the binding test, the protein material was thawed at 37° C. and washed twice by centrifugation at 48,000 g (20 min) and subsequent suspension in a buffer solution B composed of 50 mM TRIS-HCl, 0.1M potassium thiocyanate and 2.5 mM calcium chloride, pH 7.1. […] The filtrate [sic] was subsequently washed with 5 ml of cold buffer solution B in order to separate bound and free ^3 H-AMPA from one another. After measurement of the radioactivity of the bound ^3 H-AMPA in the membrane material by scintillation counting, the KI was determined by regression analysis of the displacement plots.

`O=C(O)c1nc2c3c(nc(=O)n2[nH]1)CCCC3` [Example 2, 7,8,9,10-Tetrahydro-1,2,4-triazolo[1,5-c]quinazolin-5-one-2-carboxylic acid] displayed a Ki in assay [1] of 0.2 µM. For `O=C(NCc1ccccc1)c1nc2c3c([nH]c(=O)n2n1)CCCC3` [Example 3, 7,8,9,10-Tetrahydro-1,2,4-triazolo[1,5-c]quinazolin-5-one-2-carboxylic acid N-benzylolylamide], the Ki stood at 1.5 µM on AMPA receptor and 1.2 µM in assay [1]. Consider `O=C(O)c1nc2c3c([nH]c(=O)n2n1)CCC3` [Example 6], for which, in assay [1], the affinity, expressed as Ki, was 1.6 µM. On the same count and under the same terms, for `CCOC(=O)c1nc2c3c([nH]c(=O)n2n1)CCCCC3` [Example 7] the value was 0.4 µM; for `O=C(O)c1nc2c3c([nH]c(=O)n2n1)CCCCC3` [Example 8], 0.2 µM. The same measure, in the same setting: with `CCOC(=O)c1nc2c3c([nH]c(=O)n2n1)-c1ccccc1CC3` [Example 9] the figure was 0.65 µM. Turning to `O=C(O)c1nc2c3c([nH]c(=O)n2n1)-c1ccccc1CC3` [Example 10], the Ki on AMPA receptor came to 1.7 µM; in assay [1] it was 0.3 µM.

Consider `O=C(O)CCc1nc2c3c([nH]c(=O)n2n1)-c1ccccc1CC3` [Example 11], for which the Ki at AMPA receptor was determined as 1 µM; in assay [1], 0.1 µM. `O=C(NCc1ccc(Cl)c(Cl)c1)c1nc2c3c([nH]c(=O)n2n1)CCCC3` [Example 12] returned a Ki in assay [1] of 1.6 µM.

Take `O=C(NCc1ccc([N+](=O)[O-])cc1)c1nc2c3c([nH]c(=O)n2n1)CCCC3` [Example 15]: the Ki in assay [1] amounted to 2 µM. Same read-out and setting: with `O=C(O)c1nc2c3c([nH]c(=O)n2n1)CCSC3` [Example 18] the figure was 0.8 µM.

Take `CCOC(=O)c1nc2c3c([nH]c(=O)n2n1)CC1CCCCC1C3` (stereo not shown) [Example 21]: the Ki stood at 1.7 µM on AMPA receptor and 2.6 µM in assay [1].
